{"source": "patent US20260248879A1", "about": "“METHODS OF USING A GCG/GLP1 CO-AGONIST FOR THERAPY” (ELI LILLY AND COMPANY, priority 2022, published 2026)", "key": {"patients with T2DM [1]": {"tested_on": "patients with T2DM", "assay": "Example 1 study: HbA1c", "assay_type": "in vivo, human", "description": "This study is a Phase 1, single-site, patient- and investigator-blinded, placebo controlled, randomized, non-crossover, multiple-ascending dose study with titration in each cohort in patients with T2DM to investigate the safety, tolerability, PK, and PD of the GLP-1/glucagon co-agonist peptide of SEQ ID NO:1 (Compound 1) administered as multiple SC injections QW for 12 weeks in Cohort 1 and 16 weeks in Cohort 2.\nThe first dosing regimen (also referred to as Cohort 1) is 12 weeks in duration and requires dose increments of 1.5 mg starting from 1.5 mg: • 1.5 mg QW Compound 1 for 4 weeks; • 3.0 mg QW Compound 1 for 4 weeks; and • 4.5 mg QW Compound 1 for 4 weeks.\nThe second dosing regimen (also referred to as Cohort 2) is 16 weeks in duration and requires dose increments of 2 mg starting from 2 mg: • 2 mg QW Compound 1 for 3 weeks; • 4 mg QW Compound 1 for 3 weeks; • 6 mg QW Compound 1 for 3 weeks; • 8 mg QW Compound 1 for 3 weeks; and • 10 mg QW Compound 1 for 4 weeks.\nIn respect of Cohort 1, HbA1c levels are determined at baseline and Days 1, 29, 57 and 78. In respect of Cohort 2, HbA1c is measured at baseline and Days 1, 22, 43, 64, 85 and 106."}, "patients with T2DM [2]": {"tested_on": "patients with T2DM", "assay": "Example 1 study: fasting pharmacodynamic markers (glucose, insulin, C-peptide, glucagon, lipids, HOMA indices)", "assay_type": "in vivo, human", "description": "Fasting plasma samples for glucose and insulin are explored as secondary PD markers. Exploratory PD may include, but are not limited to plasma glucagon, C-peptide, native OXM, lipid panel (triglycerides, total cholesterol, low-density lipoprotein cholesterol, and high-density lipoprotein cholesterol), beta cell function, and homeostatic model assessment (HOMA) indices.\nPlasma concentrations of at least glucose, glucagon, insulin, C-peptide and native OXM, are assayed using validated analytical methods.\nIn respect of Cohort 1, PD sampling occurs at baseline and Days 1, 3 (48 hours post administration of Compound 1), 8, 22, 29, 50, 57, 78 and 80. […]"}, "[3]": {"details": "Cohort 1, escalated to 4.5 mg, Day 78 and Day 80"}, "[4]": {"details": "Cohort 1, escalated to 4.5 mg, Day 80"}, "[5]": {"details": "Cohort 2, escalated to 6.0 mg, Day 64"}}, "note": "Marks after values point to notes of the source that are not given here."}
{"smiles": "CC(C)C[C@H](NC(=O)[C@H](CC(C)C)NC(=O)[C@H](Cc1c[nH]c2ccccc12)NC(=O)[C@H](CCC(=O)O)NC(=O)[C@@H](NC(=O)[C@H](Cc1ccccc1)NC(=O)[C@H](CCC(=O)O)NC(=O)[C@H](CCCCNC(=O)COCCOCCNC(=O)COCCOCCNC(=O)CC[C@H](NC(=O)CCCCCCCCCCCCCCCCCCC(=O)O)C(=O)O)NC(=O)[C@H](C)NC(=O)[C@H](CCCCN)NC(=O)[C@H](CCCCN)NC(=O)[C@H](CCC(=O)O)NC(=O)[C@H](CC(=O)O)NC(=O)[C@H](CC(C)C)NC(=O)[C@H](Cc1ccc(O)cc1)NC(=O)[C@H](CCCCN)NC(=O)[C@H](CO)NC(=O)[C@H](Cc1ccc(O)cc1)NC(=O)[C@H](CC(=O)O)NC(=O)[C@H](CO)NC(=O)[C@@H](NC(=O)[C@H](Cc1ccccc1)NC(=O)[C@@H](NC(=O)CNC(=O)[C@H](CCC(N)=O)NC(=O)C(C)(C)NC(=O)[C@@H](N)Cc1c[nH]cn1)[C@@H](C)O)[C@@H](C)O)C(C)C)C(=O)N[C@@H](CCC(=O)O)C(=O)NCC(=O)NCC(=O)N1CCC[C@H]1C(=O)N[C@@H](CO)C(=O)N[C@@H](CO)C(=O)NCC(N)=O", "note": "[Compound 1]", "values": [{"measurement": "Change from Baseline in HbA1c", "setting": "patients with T2DM [1]; Cohort 1 (1.5-4.5 mg QW), Day 29, baseline 8.52", "result": "−0.70* %"}, {"measurement": "Change from Baseline in HbA1c", "setting": "patients with T2DM [1]; Cohort 1, Day 57, baseline 8.52", "result": "−1.45* %"}, {"measurement": "Change from Baseline in HbA1c", "setting": "patients with T2DM [1]; Cohort 1, Day 78, baseline 8.52", "result": "−1.80* %"}, {"measurement": "Change from Baseline in HbA1c", "setting": "patients with T2DM [1]; Cohort 1, Day 106 (28 days after last dose), baseline 8.52", "result": "−2.03* %"}, {"measurement": "HbA1c decrease from baseline compared to placebo", "setting": "patients with T2DM [1]; Cohort 1 and Cohort 2, Day 57 until Day 134", "result": "Statistically significant decreases"}, {"measurement": "Change from Baseline in HbA1c", "setting": "patients with T2DM [1]; Cohort 2 (2-10 mg QW), Day 43, baseline 8.08", "result": "−0.83* %"}, {"measurement": "Change from Baseline in HbA1c", "setting": "patients with T2DM [1]; Cohort 2, Day 64, baseline 8.08", "result": "−1.35* %"}, {"measurement": "Change from Baseline in HbA1c", "setting": "patients with T2DM [1]; Cohort 2, Day 85, baseline 8.08", "result": "−1.50* %"}, {"measurement": "Change from Baseline in HbA1c", "setting": "patients with T2DM [1]; Cohort 2, Day 106, baseline 8.08", "result": "−1.67* %"}, {"measurement": "mean fasting glucagon", "setting": "patients with T2DM [2]; Cohort 1, escalated to 4.5 mg, Day 78, baseline 14.79 pmol/L", "result": 6.65, "unit": "pmol/L"}, {"measurement": "mean fasting C-peptide", "setting": "patients with T2DM [2]; Cohort 1, escalated to 4.5 mg, Day 78, baseline 667 pmol/L", "result": 820, "unit": "pmol/L"}, {"measurement": "mean fasting triglyceride", "setting": "patients with T2DM [2]; Cohort 1, escalated to 4.5 mg, Day 78, baseline 2.938", "result": 1.456, "unit": "mmol/L"}, {"measurement": "mean HOMA-IR index", "setting": "patients with T2DM [2]; Cohort 1, escalated to 4.5 mg, Day 78, baseline 4.704", "result": 4.289}, {"measurement": "mean fasting total cholesterol", "setting": "patients with T2DM [2]; Cohort 1, escalated to 4.5 mg, Day 78, baseline 5.065", "result": 4.275, "unit": "mmol/L"}, {"measurement": "mean fasting insulin", "setting": "patients with T2DM [2]; Cohort 1, escalated to 4.5 mg, Day 78, baseline 9.648", "result": 13.362, "unit": "mIU/L"}, {"measurement": "approximate decrease of HOMA-IR from baseline", "setting": "patients with T2DM [2]; [3]", "result": "~9", "unit": "%"}, {"measurement": "approximate decrease of fasting LDL cholesterol from baseline", "setting": "patients with T2DM [2]; [3]", "result": "~10", "unit": "%"}, {"measurement": "approximate decrease of fasting glucagon from baseline", "setting": "patients with T2DM [2]; [3]", "result": "45-55%"}, {"measurement": "approximate decrease of fasting total cholesterol from baseline", "setting": "patients with T2DM [2]; [3]", "result": "12-16%"}, {"measurement": "approximate decrease of fasting triglyceride from baseline", "setting": "patients with T2DM [2]; [3]", "result": "29-50%"}, {"measurement": "approximate increase of fasting C-peptide from baseline", "setting": "patients with T2DM [2]; [3]", "result": "22-31%"}, {"measurement": "approximate increase of fasting insulin from baseline", "setting": "patients with T2DM [2]; [3]", "result": "38-46%"}, {"measurement": "mean fasting LDL cholesterol", "setting": "patients with T2DM [2]; Cohort 1, escalated to 4.5 mg, Day 78 and Day 80, baseline 2.852", "result": 2.56, "unit": "mmol/L"}, {"measurement": "approximate increase of HOMA-B from baseline", "setting": "patients with T2DM [2]; [4]", "result": "~145", "unit": "%"}, {"measurement": "approximate reduction of mean fasting glucose from baseline", "setting": "patients with T2DM [2]; [4]", "result": "~40", "unit": "%"}, {"measurement": "mean fasting glucagon", "setting": "patients with T2DM [2]; Cohort 1, escalated to 4.5 mg, Day 80, baseline 14.79 pmol/L", "result": 8.19, "unit": "pmol/L"}, {"measurement": "mean fasting C-peptide", "setting": "patients with T2DM [2]; Cohort 1, escalated to 4.5 mg, Day 80, baseline 667 pmol/L", "result": 875, "unit": "pmol/L"}, {"measurement": "mean fasting triglyceride", "setting": "patients with T2DM [2]; Cohort 1, escalated to 4.5 mg, Day 80, baseline 2.938", "result": 2.084, "unit": "mmol/L"}, {"measurement": "mean fasting total cholesterol", "setting": "patients with T2DM [2]; Cohort 1, escalated to 4.5 mg, Day 80, baseline 5.065", "result": 4.461, "unit": "mmol/L"}, {"measurement": "mean fasting insulin", "setting": "patients with T2DM [2]; Cohort 1, escalated to 4.5 mg, Day 80, baseline 9.648", "result": 14.046, "unit": "mIU/L"}, {"measurement": "mean fasting glucose", "setting": "patients with T2DM [2]; Cohort 1, escalated to 4.5 mg, Day 80, baseline 10.78", "result": 6.52, "unit": "mmol/L"}, {"measurement": "approximate decrease of fasting glucagon from baseline", "setting": "patients with T2DM [2]; Cohort 2, escalated to 6.0 mg", "result": "~63", "unit": "%"}, {"measurement": "approximate increase of fasting C-peptide from baseline", "setting": "patients with T2DM [2]; Cohort 2, escalated to 6.0 mg", "result": "~12", "unit": "%"}, {"measurement": "approximate increase of fasting insulin from baseline", "setting": "patients with T2DM [2]; Cohort 2, escalated to 6.0 mg", "result": "~14", "unit": "%"}, {"measurement": "approximate decrease of HOMA-IR from baseline", "setting": "patients with T2DM [2]; [5]", "result": "~20", "unit": "%"}, {"measurement": "approximate decrease of fasting LDL cholesterol from baseline", "setting": "patients with T2DM [2]; [5]", "result": "~29", "unit": "%"}, {"measurement": "approximate decrease of fasting total cholesterol from baseline", "setting": "patients with T2DM [2]; [5]", "result": "~26", "unit": "%"}, {"measurement": "approximate decrease of fasting triglyceride from baseline", "setting": "patients with T2DM [2]; [5]", "result": "~43", "unit": "%"}, {"measurement": "approximate increase of HOMA-B from baseline", "setting": "patients with T2DM [2]; [5]", "result": "~76", "unit": "%"}, {"measurement": "mean fasting triglyceride", "setting": "patients with T2DM [2]; Cohort 2, escalated to 6.0 mg, Day 64, baseline 1.867", "result": 1.055, "unit": "mmol/L"}, {"measurement": "mean HOMA-IR index", "setting": "patients with T2DM [2]; Cohort 2, escalated to 6.0 mg, Day 64, baseline 2.7", "result": 2.158}, {"measurement": "mean fasting LDL cholesterol", "setting": "patients with T2DM [2]; Cohort 2, escalated to 6.0 mg, Day 64, baseline 2.796", "result": 1.997, "unit": "mmol/L"}, {"measurement": "mean fasting total cholesterol", "setting": "patients with T2DM [2]; Cohort 2, escalated to 6.0 mg, Day 64, baseline 4.971", "result": 3.673, "unit": "mmol/L"}, {"measurement": "mean HOMA-B index", "setting": "patients with T2DM [2]; Cohort 2, escalated to 6.0 mg, Day 64, baseline 9.108", "result": 16.072}, {"measurement": "mean fasting insulin", "setting": "patients with T2DM [2]; Cohort 2, escalated to 6.0 mg, baseline 5.892", "result": 6.73, "unit": "mIU/L"}, {"measurement": "mean fasting glucagon", "setting": "patients with T2DM [2]; Cohort 2, escalated to 6.0 mg, baseline 9.83", "result": 3.65, "unit": "pmol/L"}, {"measurement": "mean fasting C-peptide", "setting": "patients with T2DM [2]; Cohort 2, escalated to 6.0 mg, baseline 532.8", "result": 597, "unit": "pmol/L"}]}
